What was measured:
[1] = system: MBSA delayed hypersensitivity in mice; test: Delayed hypersensitivity to methylated bovine serum albumin (MBSA); assay type: in vivo, Male and female MFI mice substrain E33; settings: for % increase paw volume / % reduction (cf. arachis oil control): 10 doses
Method: Male and female MFI mice substrain E33. Initial weight approximately 25 gm.
Dosing with vehicle and retinoid commenced on day 0 and finished on day 9.
Each group consisted of 4 male and 6 female mice (separately caged). Drugs were dosed orally at a dose volume of 10 ml.kg^-1 (10 doses).

[2] = system: established adjuvant arthritis in rats; test: Effect on the course of established adjuvant arthritis; assay type: in vivo, Male Lewis rats from Charles River; settings: 100 mg/kg, 7 days
Method: Male Lewis rats from Charles River were used for these experiments.
Heat-killed, dessicated Mycobacteriam butyricum.
Adjuvant arthritis was induced by the injection of 0.1 ml of adjuvant [a suspension of heat-killed, dessicated Mycobacterium butyricum, 0.5% CW/V) in heavy mineral oil containing 0.2% digitonin] into the base of the tail. The arthritis was allowed to develop for 21 days and then the volume of both hind paws were measured using a mercury plethysmograph. The rats were divided into groups of 8 with equal mean paw volumes and then the rats were treated with Compound A, indomethacin (as a control drug), or vehicle for 7 days at the end of the treatment period, the volumes of both hind paws were again measured to assess antiinflammatory effects. Body weight changes were also followed and, at the end of the experiment, plasma was collected for determination of plasma fibrinogen (Exner et. al., Amer. J. Clin. Path, 71: 521-527).
^b Drugs were administered once a day for 7 days by intubation
^c Change in paw volume/body weight equals paw volume body weight on […]

[3] = system: adjuvant arthritis in the rat; test: Developing adjuvant arthritis in the rat; assay type: in vivo, AHH/R Female rats (PVG derived); settings: for Joint Mobility (% INC) / Lesion Score (% RDN): day 15; for % reduction of paw swelling, Primary (right): days 0-4; for % reduction of paw swelling, Secondary (left) / % reduction of paw swelling, Secondary (right): days 8-15
Method: AHH/R Female rats (PVG derived with an initial weight range of 110 to 140 g. were used.
Adjuvant for injection. An homogenized suspension of heat killed M tuberculosis (Human strains C, DT and PN), 5 mg.Ml^-1 in liquid paraffin was prepared.
Rats were randomly split into groups of five and adjuvant arthritis was induced by the sub-plantar injection of 0.1 ml of adjuvant suspension into the right hind paw of each rat. Test compounds were administered by intubation each morning commencing the day of adjuvant injection. Two groups of control rats were dosed with the vehicle as was a group of three normal rats included for comparative purposes. Dosing was carried out daily until the end of the test on day 15 except for the first weekend (days 5 & 6). Treatment groups are shown in Table III and include etretinate as standard retinoid.
Measurements of right hind paw volume were made initially and on days 2 and 4 after and adjufant injection (primary phase). Right and left hind paw volume were then measured, on day 8 and every two or three days until the end of the experiment on day 15 (secondary phase). At this time the mobility of each ankle joint and the incidence and severity of secondary lesions on nose, ears, forepaws, left hind paw and tail were also assessed in terms of degrees of flexion possible and by using an arbitrary scoring system, respectively.
The time course curves for the injected paws were integrated from days 0 to 4 to reflect primary swelling and from days 8 to 15 (secondary swelling). The secondary swelling in the non-injected paw was integrated similarly from days 8 to 15. Calculations were carried out using a specific computer program which computed mean ± se for each integrated area. The significance of differences from controls was determined by Student's t test (2 tailed) and percentage reductions from control areas were calculated. Percentage improvements in joint mobility and percentage reductions in lesion score were also determined. In the latter case the Wilcoxon rank sum test (2 tailed) was used to express the difference from the control score using raw data. Mean body weight change in each group was recorded.

Q: `CCCCCCCCCOc1ccccc1/C=C/C(C)=C/C=C/C(C)=C/C(=O)O` [Compound A, All(E)-9-[2(nonyloxy)phenyl]-3,7-dimethyl-2,4,6,8-nonatetraenoic acid] was tested. Which “% increase paw volume” value ([1]; 10 mg.kg^-1 oral) did it give?
A: 102 ± 12%

Q: And the “% reduction (cf. arachis oil control)” value ([1]; 10 mg.kg^-1 oral)?
A: 6%

Q: And the “Mean body weight change” value ([1]; 10 mg.kg^-1 oral, female (F))?
A: -0.2 g

Q: And the “Mean body weight change” value ([1]; 10 mg.kg^-1 oral, male (M))?
A: 3.3 g

Q: And the “% increase paw volume” value ([1]; 30 mg.kg^-1 oral)?
A: 50 ± 7%

Q: What about the “% reduction (cf. arachis oil control)” value ([1]; 30 mg.kg^-1 oral) of the same molecule?
A: 54%

Q: What about the “Mean body weight change” value ([1]; 30 mg.kg^-1 oral, female (F)) of the same molecule?
A: 0.5 g

Q: And the “Mean body weight change” value ([1]; 30 mg.kg^-1 oral, male (M))?
A: 2.8 g

Q: And the “% increase paw volume” value ([1]; 100 mg.kg^-1 oral)?
A: 40 ± 5%

Q: And the “% reduction (cf. arachis oil control)” value ([1]; 100 mg.kg^-1 oral)?
A: 63%

Q: What about the “Mean body weight change” value ([1]; 100 mg.kg^-1 oral, female (F)) of the same molecule?
A: -0.2 g

Q: What about the “Mean body weight change” value ([1]; 100 mg.kg^-1 oral, male (M)) of the same molecule?
A: 3.3 g

Q: What about the “Plasma Fibrinogen” value [2] of the same molecule?
A: 874 ± 57 mg/dL

Q: And the “Change in Body Weight” value ([2]; day 28 minus day 22)?
A: 5.2 ± 2.1 g

Q: What about the “Change in Paw Volume” value ([2]; day 28 minus day 22, both hind paws) of the same molecule?
A: -0.96 ± 0.10 mL

Q: What about the “Joint Mobility (% INC)” value ([3]; 15 mg.kg^-1 p.o.) of the same molecule?
A: 66%

Q: What about the “Lesion Score (% RDN)” value ([3]; 15 mg.kg^-1 p.o.) of the same molecule?
A: 72%

Q: What about the “% reduction of paw swelling, Primary (right)” value ([3]; 15 mg.kg^-1 p.o.) of the same molecule?
A: -6%

Q: What about the “% reduction of paw swelling, Secondary (left)” value ([3]; 15 mg.kg^-1 p.o.) of the same molecule?
A: 94%

Q: What about the “% reduction of paw swelling, Secondary (right)” value ([3]; 15 mg.kg^-1 p.o.) of the same molecule?
A: 30%

Q: And the “Joint Mobility (% INC)” value ([3]; 45 mg.kg^-1 p.o.)?
A: 66%

Q: What about the “Lesion Score (% RDN)” value ([3]; 45 mg.kg^-1 p.o.) of the same molecule?
A: 65%

Q: And the “% reduction of paw swelling, Primary (right)” value ([3]; 45 mg.kg^-1 p.o.)?
A: 16%

Q: And the “% reduction of paw swelling, Secondary (left)” value ([3]; 45 mg.kg^-1 p.o.)?
A: 75%

Q: And the “% reduction of paw swelling, Secondary (right)” value ([3]; 45 mg.kg^-1 p.o.)?
A: 51%

Reference: patent US4648996A, “Phenyl substituted-2,4,6,8-nonatetraenoic acid” (Hoffmann-La Roche Inc., priority 1985, dated 1987)
